Measurements reported in US12421252B2, “Spiro (isobenzofuranazetidine) compounds for the treatment of autoimmune disease” (Hoffmann-La Roche Inc., priority 2020, dated 2025).

biological target: T1, hTLR9 (Homo sapiens, UniProt Q9NR96); experiment: HEK293-Blue-hTLR-9 cells assay; assay type: cell-based; settings: HEK293-Blue-hTLR9 cells, ODN2006 stimulation, 20 hrs, SEAP reporter; read-out: HEK/hTLR9 IC50
T1 sequence (Q9NR96 26-1032): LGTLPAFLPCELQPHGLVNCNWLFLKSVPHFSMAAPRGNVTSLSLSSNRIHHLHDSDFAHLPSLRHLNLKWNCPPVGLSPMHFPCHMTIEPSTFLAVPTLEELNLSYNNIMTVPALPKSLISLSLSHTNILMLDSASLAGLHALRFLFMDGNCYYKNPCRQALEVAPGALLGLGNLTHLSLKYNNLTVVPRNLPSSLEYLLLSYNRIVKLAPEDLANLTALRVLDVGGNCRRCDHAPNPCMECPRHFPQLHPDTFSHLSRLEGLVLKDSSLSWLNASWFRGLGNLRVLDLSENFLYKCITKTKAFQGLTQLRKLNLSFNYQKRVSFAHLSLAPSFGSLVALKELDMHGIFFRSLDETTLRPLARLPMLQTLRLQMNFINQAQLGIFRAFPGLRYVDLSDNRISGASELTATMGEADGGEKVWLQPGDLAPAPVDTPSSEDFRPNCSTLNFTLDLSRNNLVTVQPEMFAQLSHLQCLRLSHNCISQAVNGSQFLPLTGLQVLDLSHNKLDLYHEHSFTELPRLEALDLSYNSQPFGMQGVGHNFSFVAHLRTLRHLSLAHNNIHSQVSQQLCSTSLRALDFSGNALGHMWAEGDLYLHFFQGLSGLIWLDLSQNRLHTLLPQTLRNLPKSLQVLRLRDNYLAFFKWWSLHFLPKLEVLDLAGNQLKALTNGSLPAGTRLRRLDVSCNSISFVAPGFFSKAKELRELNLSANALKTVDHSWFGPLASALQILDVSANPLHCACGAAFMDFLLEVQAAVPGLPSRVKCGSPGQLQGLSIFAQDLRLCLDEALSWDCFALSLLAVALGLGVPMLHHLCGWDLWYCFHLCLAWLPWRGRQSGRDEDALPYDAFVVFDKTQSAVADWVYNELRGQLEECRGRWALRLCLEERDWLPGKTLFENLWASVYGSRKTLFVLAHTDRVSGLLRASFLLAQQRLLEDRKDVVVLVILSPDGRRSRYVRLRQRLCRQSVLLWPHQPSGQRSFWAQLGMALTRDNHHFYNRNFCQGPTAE
Excerpt: HEK293-Blue-hTLR-9 cells assay: A stable HEK293-Blue-hTLR-9 cell line was purchased from InvivoGen (Cat. #: hkb-htlr9, San Diego, California, USA). These cells were originally designed for studying the stimulation of human TLR9 by monitoring the activation of NF-κB. A SEAP (secreted embryonic alkaline phosphatase) reporter gene was placed under the control of the IFN-β minimal promoter fused to five NF-κB and AP-1-binding sites. The SEAP was induced by activating NF-κB and AP-1 via stimulating HEK-Blue hTLR9 cells with TLR9 ligands. Therefore the reporter expression was declined by TLR9 antagonist under the stimulation of a ligand, such as ODN2006 (Cat. #: tlrl-2006-1, Invivogen, San Diego, California, USA), for incubation of 20 hrs. The cell culture supernatant SEAP reporter activity was determined using QUANTI-Blue™ kit (Cat. #: rep-qb1, Invivogen, San Diego, California, USA) at a wavelength of 640 nm, a detection medium that turns purple or blue in the presence of alkaline phosphatase.
HEK293-Blue-hTLR9 cells were incubated at a density of 250,000˜450,000 cells/mL in a volume of 170 μL in a 96-well plate in Dulbecco's Modified Eagle's medium (DMEM) containing 4.5 g/L glucose, 50 U/mL penicillin, […], 2 mM L-glutamine, 10% (v/v) heat-inactivated fetal bovine serum with addition of 20 μL test compound in a serial dilution in the presence of final DMSO at 1% and 10 μL of 20 uM ODN2006 in above DMEM, perform incubation under 37° C. in a CO2 incubator for 20 hrs. Then 20 μL of the supernatant from each well was incubated with 180 μL Quanti-blue substrate solution at 37° C. for 2 h and the absorbance was read at 620-655 nm using a spectrophotometer. The signaling pathway that TLR9 activation leads to downstream NF-κB activation has been widely accepted, and therefore similar reporter assay was modified for evaluating TLR9 antagonist.

IC50 [nM] | SMILES
131 | C[C@@H]1CN(c2ccc(C#N)n3ncc(F)c23)C[C@H](CN2CC3(C2)OCc2cc(N4CC(C)(N)C4)ccc23)O1 [Example 1, 4-[(2S,6R)-2-[[6-(3-amino-3-methyl-azetidin-1-yl)spiro[1H-isobenzofuran-3,3′-azetidine]-1′-yl]methyl]-6-methyl-morpholin-4-yl]-3-fluoro-pyrazolo[1,5-a]pyridine-7-carbonitrile]
45 | C[C@@H]1CN(c2ccc(C#N)n3ncc(F)c23)C[C@H](CN2CC3(C2)OCc2cc(N4CC5(CN(C)C5)C4)ccc23)O1 [Example 2, 3-fluoro-4-[(2R,6S)-2-methyl-6-[[6-(6-methyl-2,6-diazaspiro[3.3]heptan-2-yl)spiro[1H-isobenzofuran-3,3′-azetidine]-1′-yl]methyl]morpholin-4-yl]pyrazolo[1,5-a]pyridine-7-carbonitrile]
47 | C[C@@H]1CN(c2ccc(C#N)n3ncc(F)c23)C[C@H](CN2CC3(C2)OCc2cc(N[C@H]4CNC[C@H]4F)ccc23)O1 [Example 3, 3-fluoro-4-[(2S,6R)-2-[[6-[[(3S,4R)-4-fluoropyrrolidin-3-yl]amino]spiro[1H-isobenzofuran-3,3′-azetidine]-1′-yl]methyl]-6-methyl-morpholin-4-yl]pyrazolo[1,5-a]pyridine-7-carbonitrile]
96 | C[C@@H]1CN(c2ccc(C#N)n3ncc(F)c23)C[C@H](CN2CC3(C2)OCc2cc(N4CC5(CNCCO5)C4)ccc23)O1 [Example 4, 3-fluoro-4-[(2R,6S)-2-methyl-6-[[6-(5-oxa-2,8-diazaspiro[3.5]nonan-2-yl)spiro[1H-isobenzofuran-3,3′-azetidine]-1′-yl]methyl]morpholin-4-yl]pyrazolo[1,5-a]pyridine-7-carbonitrile]
94 | C[C@@H]1CN(c2ccc(C#N)n3ncc(F)c23)C[C@H](CN2CC3(C2)OCc2cc(N4CC[C@](C)(N)C4)ccc23)O1 [Example 5, 4-[(2S,6R)-2-[[6-[(3S)-3-amino-3-methyl-pyrrolidin-1-yl]spiro[1H-isobenzofuran-3,3′-azetidine]-1′-yl]methyl]-6-methyl-morpholin-4-yl]-3-fluoro-pyrazolo[1,5-a]pyridine-7-carbonitrile]
90 | C[C@@H]1CN(c2ccc(C#N)n3ncc(F)c23)C[C@H](CN2CC3(C2)OCc2cc(N4CCNCC4)ccc23)O1 [Example 6, 3-fluoro-4-[(2R,6S)-2-methyl-6-[(6-piperazin-1-ylspiro[1H-isobenzofuran-3,3′-azetidine]-1′-yl)methyl]morpholin-4-yl]pyrazolo[1,5-a]pyridine-7-carbonitrile]
68 | C[C@@H]1CN(c2ccc(C#N)n3nccc23)C[C@H](CN2CC3(C2)OCc2cc(N4CC5(CNCCO5)C4)ccc23)O1 [Example 7, 4-[(2R,6S)-2-methyl-6-[[6-(5-oxa-2,8-diazaspiro[3.5]nonan-2-yl)spiro[1H-isobenzofuran-3,3′-azetidine]-1′-yl]methyl]morpholin-4-yl]pyrazolo[1,5-a]pyridine-7-carbonitrile]
84 | C[C@@H]1CN(c2ccc(C#N)n3ncc(F)c23)C[C@H](CN2CC3(C2)OCc2cc(N4CC(N)C4)ccc23)O1 [Example 9, 4-[(2S,6R)-2-[[6-(3-aminoazetidin-1-yl)spiro[1H-isobenzofuran-3,3′-azetidine]-1′-yl]methyl]-6-methyl-morpholin-4-yl]-3-fluoro-pyrazolo[1,5-a]pyridine-7-carbonitrile]
61 | C[C@@H]1CN(c2ccc(C#N)n3ncc(F)c23)C[C@H](CN2CC3(C2)OCc2cc(N4C[C@H](N)[C@@H](O)C4)ccc23)O1 [Example 10, 4-[(2S,6R)-2-[[6-[(3S,4S)-3-amino-4-hydroxy-pyrrolidin-1-yl]spiro[1H-isobenzofuran-3,3′-azetidine]-1′-yl]methyl]-6-methyl-morpholin-4-yl]-3-fluoro-pyrazolo[1,5-a]pyridine-7-carbonitrile]
103 | C[C@@H]1CN(c2ccc(C#N)n3ncc(F)c23)C[C@H](CN2CC3(C2)OCc2cc(N4CC5(CNC5)C4)ccc23)O1 [Example 12, 4-[(2S,6R)-2-[[6-(2,6-diazaspiro[3.3]heptan-2-yl)spiro[1H-isobenzofuran-3,3′-azetidine]-1′-yl]methyl]-6-methyl-morpholin-4-yl]-3-fluoro-pyrazolo[1,5-a]pyridine-7-carbonitrile]
68 | C[C@@H]1CN(c2cc(=O)n(C)c3ncccc23)C[C@H](CN2CC3(C2)OCc2cc(N4CC(N)C4)ccc23)O1 [Example 13, 4-[(2S,6R)-2-[[6-(3-aminoazetidin-1-yl)spiro[1H-isobenzofuran-3,3′-azetidine]-1′-yl]methyl]-6-methyl-morpholin-4-yl]-1-methyl-1,8-naphthyridin-2-one]
32 | [2H]c1ccc2c(N3C[C@H](CN4CC5(C4)OCc4cc(N6C[C@@H](N)[C@H](OC)C6)ccc45)O[C@H](C)C3)ccc(C#N)c2n1 [Example 16, 5-[(2S,6R)-2-[[6-[(3R,4R)-3-amino-4-methoxy-pyrrolidin-1-yl]spiro[1H-isobenzofuran-3,3′-azetidine]-1′-yl]methyl]-6-methyl-morpholin-4-yl]-2-deuterio-quinoline-8-carbonitrile]
32 | [2H]c1ccc2c(N3C[C@H](CN4CC5(C4)OCc4cc(N6C[C@H]7NCCO[C@@H]7C6)ccc45)O[C@H](C)C3)ccc(C#N)c2n1 [Example 17, 5-[(2S,6R)-2-[[6-[(4aR,7aR)-3,4,4a,5,7,7a-hexahydro-2H-pyrrolo[3,4-b][1,4]oxazin-6-yl]spiro[1H-isobenzofuran-3,3′-azetidine]-1′-yl]methyl]-6-methyl-morpholin-4-yl]-2-deuterio-quinoline-8-carbonitrile]
32 | [2H]c1ccc2c(N3C[C@H](CN4CC5(C4)OCc4cc(N6CCNCC6)ccc45)O[C@H](C)C3)ccc(C#N)c2n1 [Example 18, 2-deuterio-5-[(2R,6S)-2-methyl-6-[(6-piperazin-1-ylspiro[1H-isobenzofuran-3,3′-azetidine]-1′-yl)methyl]morpholin-4-yl]quinoline-8-carbonitrile]
36 | C[C@@H]1CN(c2ccc(C#N)n3nccc23)C[C@H](CN2CC3(C2)OCc2cc(N4CC(N)C4)ccc23)O1 [Example 19, 4-[(2S,6R)-2-[[6-(3-aminoazetidin-1-yl)spiro[1H-isobenzofuran-3,3′-azetidine]-1′-yl]methyl]-6-methyl-morpholin-4-yl]pyrazolo[1,5-a]pyridine-7-carbonitrile]
32 | [2H]c1ccc2c(N3C[C@H](CN4CC5(C4)OCc4cc(N6CC(N)C6)cnc45)O[C@H](C)C3)ccc(C#N)c2n1 [Example 20, 5-[(2S,6R)-2-[[3-(3-aminoazetidin-1-yl)spiro[5H-furo[3,4-b]pyridine-7,3′-azetidine]-1′-yl]methyl]-6-methyl-morpholin-4-yl]-2-deuterio-quinoline-8-carbonitrile]
55 | [2H]c1ccc2c(N3C[C@H](CN4CC5(C4)OCc4cc(N6CC(C)(N)C6)cnc45)O[C@H](C)C3)ccc(C#N)c2n1 [Example 21, 5-[(2S,6R)-2-[[3-(3-amino-3-methyl-azetidin-1-yl)spiro[5H-furo[3,4-b]pyridine-7,3′-azetidine]-1′-yl]methyl]-6-methyl-morpholin-4-yl]-2-deuterio-quinoline-8-carbonitrile]
